From paper PMC6359137 (2019) come the findings set out here.

This assay relates to AFM1 aptamer (DNA, aptamer) ACTGCTAGAGATTTTCCACAT
The assay is described as follows: strand displacement, Exo III-amplified NMM fluorescence. The note with it: K+ 75 mM, Mg2+ 10 mM; C-strand (S2) displaced; highest tested 1 ng mL^-1; 37 °C; compared with blank milk.

`C[C@@H]1Cc2c(Cl)cc(C(=O)N[C@@H](Cc3ccccc3)C(=O)O)c(O)c2C(=O)O1`: the binding result was “no”.
